In patent US8900593B2 (Indiana University Research and Technology Corporation, priority 2007, dated 2014):
Read-outs that look alike come from different tables or passages of the source. Each block holds one compound with its values, some of them ahead of it. Where a SMILES comes first, the peptide text is derived from it. Bridges are numbered along the chain shown (N, C = ends). Where no end group is shown, it is not given here. PEG = not defined here

What was measured:
GLP-1 receptor = target: T1, GLP-1 receptor (Homo sapiens, UniProt P43220); experiment: Functional assay-cAMP synthesis, luciferase reporter in HEK293 cells co-transfected with GLP-1 receptor; format: cell-based; conditions: for GLP 1 Receptor Relative Potency (%): Table 11, relative to GLP-1-VKGG30 (SEQ ID NO: 527) = 100; for Percent Potency Relative to Native Ligand GLP-1Rec: relative to native GLP-1
T1 construct: expressed in transfected cells; host or cells: HEK293

glucagon receptor = target: T2, glucagon receptor (Homo sapiens, UniProt P47871); experiment: Functional assay-cAMP synthesis, luciferase reporter in HEK293 cells co-transfected with glucagon receptor; format: cell-based; conditions: for Percent Potency Relative to Native Ligand GRec: relative to native glucagon
T2 construct: expressed in transfected cells; host or cells: HEK293

[1] = Glucagon Receptor EC50(nM), Table 10, GLP-1 17-26 glucagon analogs
[2] = read-out: cAMP Induction Glucagon Receptor EC50, Table 3, pegylated glucagon analogs

T2 sequence (P47871 26-477): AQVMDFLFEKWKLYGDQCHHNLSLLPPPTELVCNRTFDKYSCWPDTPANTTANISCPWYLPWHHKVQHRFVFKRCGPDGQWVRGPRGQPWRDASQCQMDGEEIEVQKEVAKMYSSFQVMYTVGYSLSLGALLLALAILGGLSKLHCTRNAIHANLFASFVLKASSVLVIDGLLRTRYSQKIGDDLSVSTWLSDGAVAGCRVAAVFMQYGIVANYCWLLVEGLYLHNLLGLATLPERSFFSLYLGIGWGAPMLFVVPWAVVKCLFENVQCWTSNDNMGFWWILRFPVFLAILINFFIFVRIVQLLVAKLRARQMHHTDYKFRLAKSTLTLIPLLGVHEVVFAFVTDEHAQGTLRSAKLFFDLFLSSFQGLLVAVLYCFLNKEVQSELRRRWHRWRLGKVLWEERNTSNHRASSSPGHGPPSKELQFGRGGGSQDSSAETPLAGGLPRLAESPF
T1 sequence (P43220 24-463, species assumed): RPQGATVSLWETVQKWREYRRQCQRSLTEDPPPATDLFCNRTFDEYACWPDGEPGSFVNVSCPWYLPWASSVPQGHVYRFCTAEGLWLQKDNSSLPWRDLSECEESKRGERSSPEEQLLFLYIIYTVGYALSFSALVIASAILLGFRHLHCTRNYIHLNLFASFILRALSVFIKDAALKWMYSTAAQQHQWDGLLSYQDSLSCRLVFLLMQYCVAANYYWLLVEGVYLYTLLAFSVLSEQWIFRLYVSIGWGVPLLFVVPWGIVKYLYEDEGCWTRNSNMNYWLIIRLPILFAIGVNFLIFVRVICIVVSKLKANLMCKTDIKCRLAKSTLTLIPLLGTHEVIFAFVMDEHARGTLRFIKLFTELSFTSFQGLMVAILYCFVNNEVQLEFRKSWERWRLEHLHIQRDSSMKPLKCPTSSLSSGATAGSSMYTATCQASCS

Compound: CSCC[C@H](NC(=O)[C@H](CC(C)C)NC(=O)[C@H](Cc1c[nH]c2ccccc12)NC(=O)[C@H](CCC(N)=O)NC(=O)[C@@H](NC(=O)[C@H](Cc1ccccc1)NC(=O)[C@H](CC(=O)O)NC(=O)[C@H](CCCCN)NC(=O)[C@H](C)NC(=O)[C@H](CCCNC(=N)N)NC(=O)[C@H](CCCNC(=N)N)NC(=O)[C@H](CCC(=O)O)NC(=O)[C@H](CC(=O)O)NC(=O)[C@H](CC(C)C)NC(=O)[C@H](Cc1ccc(O)cc1)NC(=O)[C@H](CCCCN)NC(=O)[C@H](CO)NC(=O)[C@H](Cc1ccc(O)cc1)NC(=O)[C@H](CC(=O)O)NC(=O)[C@H](CO)NC(=O)[C@@H](NC(=O)[C@H](Cc1ccccc1)NC(=O)[C@@H](NC(=O)CNC(=O)[C@H](CCC(N)=O)NC(=O)[C@H](CO)NC(=O)[C@@H](N)Cc1c[nH]cn1)[C@@H](C)O)[C@@H](C)O)C(C)C)C(=O)N[C@@H](CC(=O)O)C(=O)NCC(=O)NCC(=O)N1CCC[C@H]1C(=O)N[C@@H](CO)C(=O)N[C@@H](CO)C(=O)NCC(=O)N[C@@H](C)C(=O)N1CCC[C@H]1C(=O)N1CCC[C@H]1C(=O)N1CCC[C@H]1C(=O)N[C@@H](CO)C(N)=O
EC50 (GLP-1 receptor): 0.02 nM

Compound: CSCC[C@H](NC(=O)[C@H](CC(C)C)NC(=O)[C@H](Cc1c[nH]c2ccccc12)NC(=O)[C@H](CCC(N)=O)NC(=O)[C@@H](NC(=O)[C@H](Cc1ccccc1)NC(=O)[C@H](CC(=O)O)NC(=O)[C@H](CCC(N)=O)NC(=O)[C@H](C)NC(=O)[C@H](CCCNC(=N)N)NC(=O)[C@H](CCCNC(=N)N)NC(=O)[C@H](CO)NC(=O)[C@H](CC(=O)O)NC(=O)[C@H](CC(C)C)NC(=O)[C@H](Cc1ccc(O)cc1)NC(=O)[C@H](CCCCN)NC(=O)[C@H](CO)NC(=O)[C@H](Cc1ccc(O)cc1)NC(=O)[C@H](CC(=O)O)NC(=O)[C@H](CO)NC(=O)[C@@H](NC(=O)[C@H](Cc1ccccc1)NC(=O)[C@@H](NC(=O)CNC(=O)[C@H](CCC(N)=O)NC(=O)[C@H](CO)NC(=O)[C@@H](N)Cc1c[nH]cn1)[C@@H](C)O)[C@@H](C)O)C(C)C)C(=O)N[C@@H](CC(=O)O)C(=O)NCC(=O)NCC(=O)N1CCC[C@H]1C(=O)N[C@@H](CO)C(=O)N[C@@H](CO)C(=O)NCC(=O)N[C@@H](C)C(=O)N1CCC[C@H]1C(=O)N1CCC[C@H]1C(=O)N1CCC[C@H]1C(=O)N[C@@H](CO)C(N)=O [-MDGG^30 PSSGAPPPS (SEQ ID NO: 525)]
EC50 (GLP-1 receptor): 0.13 nM

Compound: CSCC[C@H](NC(=O)[C@H](CC(C)C)NC(=O)[C@H](Cc1c[nH]c2ccccc12)NC(=O)[C@H](CCC(N)=O)NC(=O)[C@@H](NC(=O)[C@H](Cc1ccccc1)NC(=O)[C@H](CC(=O)O)NC(=O)[C@H](CCC(N)=O)NC(=O)[C@H](C)NC(=O)[C@H](CCCNC(=N)N)NC(=O)[C@H](CCCNC(=N)N)NC(=O)[C@H](CO)NC(=O)[C@H](CC(=O)O)NC(=O)[C@H](CC(C)C)NC(=O)[C@H](Cc1ccc(O)cc1)NC(=O)[C@H](CCCCN)NC(=O)[C@H](CO)NC(=O)[C@H](Cc1ccc(O)cc1)NC(=O)[C@H](CC(=O)O)NC(=O)[C@H](CO)NC(=O)[C@@H](NC(=O)[C@H](Cc1ccccc1)NC(=O)[C@@H](NC(=O)CNC(=O)[C@H](CCC(N)=O)NC(=O)[C@H](CO)NC(=O)[C@@H](N)Cc1c[nH]cn1)[C@@H](C)O)[C@@H](C)O)C(C)C)C(=O)N[C@@H](CCCCN)C(=O)NCC(=O)NCC(=O)N1CCC[C@H]1C(=O)N[C@@H](CO)C(=O)N[C@@H](CO)C(=O)NCC(=O)N[C@@H](C)C(=O)N1CCC[C@H]1C(=O)N1CCC[C@H]1C(=O)N1CCC[C@H]1C(=O)N[C@@H](CO)C(N)=O [-MKGG^30 PSSGAPPPS (SEQ ID NO: 523)]
EC50 (GLP-1 receptor): 0.8 nM
GLP 1 Receptor Relative Potency (%) (GLP-1 receptor): 3%
EC50 (glucagon receptor): 0.61 nM
Glucagon Receptor Relative Potency (%) (glucagon receptor; Table 11, relative to glucagon (SEQ ID NO: 1) = 100): 14%

Compound: CSCC[C@H](NC(=O)[C@H](CC(C)C)NC(=O)[C@H](Cc1c[nH]c2ccccc12)NC(=O)[C@H](CCC(N)=O)NC(=O)[C@@H](NC(=O)[C@H](Cc1ccccc1)NC(=O)[C@H](CC(=O)O)NC(=O)[C@H](CCC(N)=O)NC(=O)[C@H](C)NC(=O)[C@H](CCCNC(=N)N)NC(=O)[C@H](CCCNC(=N)N)NC(=O)[C@H](CO)NC(=O)[C@H](CC(=O)O)NC(=O)[C@H](CC(C)C)NC(=O)[C@H](Cc1ccc(O)cc1)NC(=O)[C@H](CCCCN)NC(=O)[C@H](CO)NC(=O)[C@H](Cc1ccc(O)cc1)NC(=O)[C@H](CC(=O)O)NC(=O)[C@H](CO)NC(=O)[C@@H](NC(=O)[C@H](Cc1ccccc1)NC(=O)[C@@H](NC(=O)CNC(=O)[C@H](CCC(N)=O)NC(=O)[C@H](CO)NC(=O)[C@@H](N)Cc1c[nH]cn1)[C@@H](C)O)[C@@H](C)O)C(C)C)C(=O)N[C@@H](CC(N)=O)C(=O)NCC(=O)NCC(=O)N1CCC[C@H]1C(=O)N[C@@H](CO)C(=O)N[C@@H](CO)C(=O)NCC(=O)N[C@@H](C)C(=O)N1CCC[C@H]1C(=O)N1CCC[C@H]1C(=O)N1CCC[C@H]1C(=O)N[C@@H](CO)C(N)=O [-MNGG^30 PSSGAPPPS (SEQ ID NO: 522)]
EC50 (GLP-1 receptor): 0.31 nM
GLP 1 Receptor Relative Potency (%) (GLP-1 receptor): 8%

Compound: Glucagon Cys^29 Mal-PEG-5K [Glucagon C29 PEG 5K]
EC50 (glucagon receptor; [2]): 0.96 ± 0.07 nM

Compound: HSQGTFTSDYSKYLDERRAKDFVQW LMNTa [E16, K20 Gluc-NH2] (HSQGTFTSDYSKYLDERRAKDFVQWLMNT-NH2)
Percent Potency Relative to Native Ligand GLP-1Rec (GLP-1 receptor; Table 5): 41.5%
Percent Potency Relative to Native Ligand GLP-1Rec (GLP-1 receptor; Table 9, E16/lactam analogs): 41.5%
Percent Potency Relative to Native Ligand GRec (glucagon receptor; Table 5): 130.1%
Percent Potency Relative to Native Ligand GRec (glucagon receptor; Table 9, E16/lactam analogs): 130.1%

Compound: HSQGTFTSDYSKYLDERRAKDFVQW LMNTa [E16K20 Gluc-NH2 Lac] (HSQGTFTSDYSKYLDERRAKDFVQWLMNT-NH2; lactam 16-20; N-terminus assumed; SMILES CSCC[C@H](NC(=O)[C@H](CC(C)C)NC(=O)[C@H](Cc1c[nH]c2ccccc12)NC(=O)[C@H](CCC(N)=O)NC(=O)[C@@H](NC(=O)[C@H](Cc1ccccc1)NC(=O)[C@H](CC(=O)O)NC(=O)[C@@H]1CCCCNC(=O)CC[C@H](NC(=O)[C@H](CC(=O)O)NC(=O)[C@H](CC(C)C)NC(=O)[C@H](Cc2ccc(O)cc2)NC(=O)[C@H](CCCCN)NC(=O)[C@H](CO)NC(=O)[C@H](Cc2ccc(O)cc2)NC(=O)[C@H](CC(=O)O)NC(=O)[C@H](CO)NC(=O)[C@@H](NC(=O)[C@H](Cc2ccccc2)NC(=O)[C@@H](NC(=O)CNC(=O)[C@H](CCC(N)=O)NC(=O)[C@H](CO)NC(=O)[C@@H](N)Cc2c[nH]cn2)[C@@H](C)O)[C@@H](C)O)C(=O)N[C@@H](CCCNC(=N)N)C(=O)N[C@@H](CCCNC(=N)N)C(=O)N[C@@H](C)C(=O)N1)C(C)C)C(=O)N[C@@H](CC(N)=O)C(=O)N[C@H](C(N)=O)[C@@H](C)O)
Percent Potency Relative to Native Ligand GLP-1Rec (GLP-1 receptor; Table 9, E16/lactam analogs): 63.0%
Percent Potency Relative to Native Ligand GRec (glucagon receptor; Table 9, E16/lactam analogs): 180.8%

Compound: HSQGT FTSDYSKYLD EQAAK EFIC*W LMNTa (HSQGTFTSDYSKYLDEQAAKEFIC(PEG)WLMNT-NH2; reading uncertain) [Chimera Cys24 (SEQ ID NO: 518), C* is Cys attached to PEG in the tested form]
Parent w/PEG % Potency Relative to Native GLP-1R (GLP-1 receptor; Table 12, pegylated peptide): 29.3%
Parent w/PEG % Potency Relative to Native GR (glucagon receptor; Table 12, pegylated peptide): 19.8%

Compound: Oxyntomodulin C24 PEG 20K: oxyntomodulin Cys24 pegylated with 20K PEG
EC50 (glucagon receptor; read-out: cAMP Induction Glucagon Receptor EC50, Table 2, analogs with C-terminus extension): 0.97 ± 0.04 nM

Compound: SEQ ID NO: 22: glucagon analog substituting the native glutamine at position 3 with glutamic acid
selectivity for the GLP-1 receptor (GLP-1 receptor; versus glucagon receptor): approximately a tenfold selectivity

Second part, the compound after the results:

EC50 (GLP-1 receptor): 0.007 nM
EC50 (glucagon receptor; [1]): 0.16 nM
Compound: CC[C@H](C)[C@H](NC(=O)[C@H](Cc1ccccc1)NC(=O)[C@H](CCC(=O)O)NC(=O)[C@H](CCCCN)NC(=O)[C@H](C)NC(=O)[C@H](C)NC(=O)[C@H](CCC(N)=O)NC(=O)[C@H](CCC(=O)O)NC(=O)[C@H](CC(=O)O)NC(=O)[C@H](CC(C)C)NC(=O)[C@H](Cc1ccc(O)cc1)NC(=O)[C@H](CCCCN)NC(=O)[C@H](CO)NC(=O)[C@H](Cc1ccc(O)cc1)NC(=O)[C@H](CC(=O)O)NC(=O)[C@H](CO)NC(=O)[C@@H](NC(=O)[C@H](Cc1ccccc1)NC(=O)[C@@H](NC(=O)CNC(=O)[C@H](CCC(N)=O)NC(=O)[C@H](CO)NC(=O)[C@@H](N)Cc1c[nH]cn1)[C@@H](C)O)[C@@H](C)O)C(=O)N[C@H]1CCC(=O)NCCCC[C@@H](C(=O)NCC(N)=O)NC(=O)[C@H](C(C)C)NC(=O)[C@H](CC(C)C)NC(=O)[C@H](Cc2c[nH]c3ccccc23)NC1=O [E16 GLP(17-29)-NH2 E24, K28 Lactam] (H-HSQGTFTSDYSKYLDEQAAKEFIEWLVKG-NH2; lactam 24-28; N-terminus assumed)

GLP 1 Receptor Relative Potency (%) (GLP-1 receptor): 100%
EC50 (GLP-1 receptor; read-out: GLP 1 Receptor EC50): 0.025 nM
Compound: CC[C@H](C)[C@H](NC(=O)[C@H](Cc1ccccc1)NC(=O)[C@H](CCC(=O)O)NC(=O)[C@H](CCCCN)NC(=O)[C@H](C)NC(=O)[C@H](C)NC(=O)[C@H](CCC(N)=O)NC(=O)CNC(=O)[C@H](CCC(=O)O)NC(=O)[C@H](CC(C)C)NC(=O)[C@H](Cc1ccc(O)cc1)NC(=O)[C@H](CO)NC(=O)[C@H](CO)NC(=O)[C@@H](NC(=O)[C@H](CC(=O)O)NC(=O)[C@H](CO)NC(=O)[C@@H](NC(=O)[C@H](Cc1ccccc1)NC(=O)[C@@H](NC(=O)CNC(=O)[C@H](CCC(=O)O)NC(=O)[C@H](C)NC(=O)[C@@H](N)Cc1c[nH]cn1)[C@@H](C)O)[C@@H](C)O)C(C)C)C(=O)N[C@@H](C)C(=O)N[C@@H](Cc1c[nH]c2ccccc12)C(=O)N[C@@H](CC(C)C)C(=O)N[C@H](C(=O)N[C@@H](CCCCN)C(=O)NCC(=O)NCC(N)=O)C(C)C [GLP-1-VKGG^30 (SEQ ID NO: 527), HAEGTFTSDVSSYLEGQAAKEFIAW LVKGGa, reference compound]

EC50 (glucagon receptor; [2]): 0.82 ± 0.15 nM
Compound: Glucagon Cys^17 Mal-PEG-5K [Glucagon C17 PEG 5K]

EC50 (glucagon receptor; [2]): 0.1 ± 0.05 nM
Compound: Glucagon Cys^24 maleimido,PEG-3.4K-dimer [Glucagon C24 Dimer]

Percent Potency Relative to Native Ligand GLP-1Rec (GLP-1 receptor; Table 4): 28.8%
Percent Potency Relative to Native Ligand GRec (glucagon receptor; Table 4): 1.6%
Compound: HSEGTFTSDYSKYLDERRAQDFVQW LMNTa (HSEGTFTSDYSKYLDERRAQDFVQWLMNT-NH2) [E3, E16 Gluc-NH2]

EC50 (glucagon receptor; [1]): 0.076 nM
Compound: HSQGTFTSDYSKYLDEQAAKEFIAWLMNT-NH2 [E16 GLP(17-26)Glu(27-29)-NH2, HSQGTFTSDYSKYLDEQAAKEFIAW LMNTa]
